Experiment [1] relates to Human immunodeficiency virus 1. In words: Inhibitory activity against HIV-1 IIIB to achieve 50% protection of MT-2 cells. The settings on record: Human immunodeficiency virus 1, MT2. The format is functional, organism-based.
In experiment [2] the test system is MT2. Kind of experiment: Cytotoxic concentration required to reduce the viability of mock-infected MT-2 cells by 50%. Type of experiment: functional. The conditions noted are these: Homo sapiens.

`C=C[C@@]1(CO)C=C[C@H](n2cc(C)c(=O)[nH]c2=O)O1` came in with an IC50 in experiment [1] greater than 100 µM. Besides, the CC50 in experiment [2] was greater than 100 µM.

Turning to `Cc1cn([C@H]2C=C[C@@](C)(CO)O2)c(=O)[nH]c1=O`, the IC50 in experiment [1] was greater than 100 µM. The molecule further yielded a CC50 in experiment [2] greater than 100 µM.

Turning to `C#C[C@@]1(CO)C=C[C@H](n2cc(C)c(=O)[nH]c2=O)O1` [CENSAVUDINE], in experiment [1], the IC50 was determined as 0.2 µM. In addition, the 50% cytotoxic concentration (CC50) in experiment [2] was greater than 100 µM.

Molecule `Cc1cn([C@H]2C=C[C@@H](CO)O2)c(=O)[nH]c1=O` [STAVUDINE] gave an IC50 in experiment [1] of 2.8 µM. The molecule further displayed a CC50 in experiment [2] of 100 µM.

The IC50 is the concentration at which inhibition is half-maximal. By CC50 is commonly meant the concentration giving 50% cytotoxicity. Read a high CC50 as lower toxicity to the cells.

Values taken from ChEMBL document CHEMBL1136327, “Synthesis of a highly active new anti-HIV agent 2',3'-didehydro-3'-deoxy-4'-ethynylthymidine” (Bioorg Med Chem Lett, 2003).
